One experiment has as its target BRAF^V600E (Homo sapiens, UniProt P15056, V600E). The experiment can be described thus: BRAF^V600E enzymatic activity assay (LanthaScreen kinase assay kit, TR-FRET). For orientation: TR-FRET usually uses a lanthanide donor and a delayed reading to cut background.
For a further experiment, the system named is A375 cells. The experiment can be described thus: Cell proliferation assay (CellTiter-Glo), A375 cells. Format: cell-based. The note with it: Homo sapiens, A-375, 72 h, 3-day treatment, vs vehicle control (1% DMSO), read-out: A375 cell growth IC50. The protocol:
Cell Proliferation Assay:
A375, Colo-205, Calu-6, and SW-480 cells were purchased from American Type Culture Collection (USA). All cells were cultured in the recommended medium and serum concentration. Cells were maintained at 37° C. in a humidified atmosphere with 5% CO2. For cell proliferation assay, cells were seeded in 96-well pates at a density of 1,000 to 5,000 cells per well and cultured overnight at 37° C. in medium supplemented with 5-10% FBS. On the next day, the test articles at various concentrations or vehicle control (1% DMSO) were added into cell culture. After 3-day treatment, the growth of cells was assayed by the CellTiter-Glo® Luminestceaent Cell Viability Assay (Promega).
In general terms: In ATP-based viability assays light output follows the ATP content of the culture.

The term IC50 denotes the concentration that inhibits the measured activity by half.

Chain of BRAF^V600E (P15056 whole entry V600E): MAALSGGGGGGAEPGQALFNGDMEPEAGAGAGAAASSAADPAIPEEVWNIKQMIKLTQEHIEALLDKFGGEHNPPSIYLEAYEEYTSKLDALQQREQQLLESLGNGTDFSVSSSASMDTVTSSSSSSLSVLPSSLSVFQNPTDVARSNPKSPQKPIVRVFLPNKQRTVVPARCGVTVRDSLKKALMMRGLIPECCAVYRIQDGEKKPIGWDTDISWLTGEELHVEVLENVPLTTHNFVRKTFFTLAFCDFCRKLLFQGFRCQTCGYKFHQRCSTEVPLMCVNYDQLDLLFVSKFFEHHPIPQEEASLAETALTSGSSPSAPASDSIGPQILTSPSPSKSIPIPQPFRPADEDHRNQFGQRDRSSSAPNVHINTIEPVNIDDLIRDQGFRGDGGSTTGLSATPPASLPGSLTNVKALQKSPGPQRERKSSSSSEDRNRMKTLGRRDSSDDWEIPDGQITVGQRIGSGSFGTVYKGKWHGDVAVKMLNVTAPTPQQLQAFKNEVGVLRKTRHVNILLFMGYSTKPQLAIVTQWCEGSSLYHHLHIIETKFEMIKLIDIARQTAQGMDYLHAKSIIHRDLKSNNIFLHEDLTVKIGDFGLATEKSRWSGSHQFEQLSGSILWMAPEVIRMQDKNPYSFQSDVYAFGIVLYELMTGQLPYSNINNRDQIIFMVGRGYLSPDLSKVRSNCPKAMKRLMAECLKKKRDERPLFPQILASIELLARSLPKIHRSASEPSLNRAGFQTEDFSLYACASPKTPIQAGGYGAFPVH
Method for BRAF^V600E: The assay was conducted according to the procedure provided in the assay kit. […] The final reaction volume for each reaction was 10 μl. The reaction was stopped by addition of 10 μl of TR-FRET dilution buffer supplemented with kinase quench buffer (10 mM EDTA final) and Tb-anti-pMAP2K1 (2 nM final). […] IC50 value was calculated using appropriate programs in GraphPad Prism by plotting the logarithm of the concentration versus percent inhibition.

Turning to `CCCS(=O)(=O)Nc1ccc(F)c(-c2ccc3cc(N)ncc3c2)c1F` [Example 1, N-(3-(3-aminoisoquinolin-7-yl)-2,4-difluorophenyl)propane-1-sulfonamide], the IC50 on BRAF^V600E amounted to 8690 nM; in the experiment on A375 cells it was 103 nM.
In the case of `CCCS(=O)(=O)Nc1ccc(F)c(-c2ccc3cc(NC[C@H](C)NC(=O)OC)ncc3c2)c1F` [Example 2, (S)-methyl-1-(7-(2,6-difluoro-3-(propylsulfonamido)phenyl)isoquinolin-3-ylamino)propan-2-ylcarbamate], the IC50 in the experiment on A375 cells turned out to be 775 nM.
Turning to `CCCS(=O)(=O)Nc1ccc(F)c(-c2cc3cnc(N)cc3cc2OC)c1F` [Example 3, N-(3-(3-amino-6-methoxyisoquinolin-7-yl)-2,4-difluorophenyl)propane-1-sulfonamide], the figures for the IC50 on BRAF^V600E and in the experiment with A375 cells were 799 nM and 1000 nM, respectively.
With `CCCS(=O)(=O)Nc1ccc(F)c(-c2cc3cnc(NC[C@H](C)NC(=O)OC)cc3cc2OC)c1F` [Example 4, methyl N-[(1S)-2-[[7-[2,6-difluoro-3-(propylsulfonylamino)phenyl]-6-methoxy-3-isoquinolyl]amino]-1-methyl-ethyl]carbamate], the IC50 against BRAF^V600E came out at 212 nM; in the experiment on A375 cells it was 19 nM.
For `CCCS(=O)(=O)Nc1ccc(F)c(-c2cc3cnc(NC[C@@H](C)NC(=O)OC)cc3cc2OC)c1F` [Example 5, methyl N-[(1R)-2-[[7-[2,6-difluoro-3-(propylsulfonylamino)phenyl]-6-methoxy-3-isoquinolyl]amino]-1-methyl-ethyl]carbamate], in that order: 3660 nM and 726 nM.
For `CCCS(=O)(=O)Nc1ccc(F)c(-c2cc3cnc(NC[C@H](C)NC(=O)OC)cc3cc2OCCF)c1F` [Example 6, methyl N-[(1S)-2-[[7-[2,6-difluoro-3-(propylsulfonylamino)phenyl]-6-(2-fluoroethoxy)-3-isoquinolyl]amino]-1-methyl-ethyl]carbamate], in that order: 100 nM and 158 nM.
`CCCS(=O)(=O)Nc1ccc(F)c(-c2cc3cnc(NC[C@H](C)NC(=O)OC)cc3cc2CC)c1F` [Example 7, methyl N-[(1S)-2-[[7-[2,6-difluoro-3-(propylsulfonylamino)phenyl]-6-ethyl-3-isoquinolyl]amino]-1-methyl-ethyl]carbamate]: the IC50 against BRAF^V600E was determined as 560 nM; with A375 cells, 306 nM.
Taken in the same sequence, the figures for `CCCS(=O)(=O)Nc1ccc(F)c(-c2ccc3c(cnc4[nH]ncc43)c2)c1F` [Example 8, N-(2,4-difluoro-3-(3H-pyrazolo[3,4-c]isoquinolin-7-yl)phenyl)propane-1-sulfonamide] were 70 nM and 227 nM.
With `CCCS(=O)(=O)Nc1ccc(F)c(-c2ccc3c(cnc4[nH]nc(Br)c43)c2)c1F` [Example 9, N-(3-(1-bromo-3H-pyrazolo[3,4-c]isoquinolin-7-yl)-2,4-difluorophenyl)propane-1-sulfonamide], in the experiment on A375 cells, the IC50 is 145 nM.
With `CCCS(=O)(=O)Nc1ccc(F)c(-c2ccc3c(cnc4[nH]nc(C5CC5)c43)c2)c1F` [Example 10, N-(3-(1-cyclopropyl-3H-pyrazolo[3,4-c]isoquinolin-7-yl)-2,4-difluorophenyl)propane-1-sulfonamide], the concentration for half-maximal inhibition (IC50) against BRAF^V600E stood at 2710 nM; with A375 cells, 145 nM.
Taken in the same sequence, the figures for `CCCS(=O)(=O)Nc1ccc(F)c(-c2ccc3c(cnc4[nH]ncc43)c2)c1Cl` [Example 11, N-(2-chloro-4-fluoro-3-(3H-pyrazolo[3,4-c]isoquinolin-7-yl)phenyl)propane-1-sulfonamide] were 18.3 nM and 95 nM.
For `CCCS(=O)(=O)Nc1ccc(F)c(-c2ccc3c(cnc4[nH]nc(Br)c43)c2)c1Cl` [Example 12, N-(3-(1-bromo-3H-pyrazolo[3,4-c]isoquinolin-7-yl)-2-chloro-4-fluorophenyl)propane-1-sulfonamide], the IC50 in the experiment with A375 cells turned out to be 144 nM.
As to `CCCS(=O)(=O)Nc1ccc(F)c(-c2ccc3c(cnc4[nH]nc(C5CC5)c43)c2)c1Cl` [Example 13, N-(2-chloro-3-(1-cyclopropyl-3H-pyrazolo[3,4-c]isoquinolin-7-yl)-4-fluorophenyl)propane-1-sulfonamide], the results for the IC50 against BRAF^V600E and with A375 cells were 20 nM and 64 nM, respectively.
For `O=S(=O)(CCCF)Nc1ccc(F)c(-c2ccc3c(cnc4[nH]ncc43)c2)c1F` [Example 14, N-(2,4-difluoro-3-(3H-pyrazolo[3,4-c]isoquinolin-7-yl)phenyl)-3-fluoropropane-1-sulfonamide], in that order: 50 nM and 66 nM.
On to `O=S(=O)(CCCF)Nc1ccc(F)c(-c2ccc3c(cnc4[nH]ncc43)c2)c1Cl` [Example 15, N-(2-chloro-4-fluoro-3-(3H-pyrazolo[3,4-c]isoquinolin-7-yl)phenyl)-3-fluoropropane-1-sulfonamide], for which the IC50 was 6.6 nM on BRAF^V600E and 23 nM in the experiment on A375 cells.
Taken in the same sequence, the figures for `CCCS(=O)(=O)Nc1ccc(Cl)c(-c2ccc3c(cnc4[nH]ncc43)c2)c1Cl` [Example 16, N-(2,4-dichloro-3-(3H-pyrazolo[3,4-c]isoquinolin-7-yl)phenyl)propane-1-sulfonamide] were 41.3 nM and 341 nM.
As for `CCCS(=O)(=O)Nc1ccc(Cl)c(-c2ccc3c(cnc4[nH]ncc43)c2)c1F` [Example 17, N-(4-chloro-2-fluoro-3-(3H-pyrazolo[3,4-c]isoquinolin-7-yl)phenyl)propane-1-sulfonamide], the results for the IC50 against BRAF^V600E and in the experiment on A375 cells were 118 nM and 131 nM, respectively.
For `O=S1(=O)CCCN1c1ccc(F)c(-c2ccc3c(cnc4[nH]ncc43)c2)c1F` [Example 18, N-(2,4-difluoro-3-(3H-pyrazolo[3,4-c]isoquinolin-7-yl)phenyl)-1,3-propanesultam], in that order: 3740 nM and 1000 nM.
For `CCCS(=O)(=O)Nc1ccc(F)c(-c2cc3cnc4[nH]ncc4c3cc2OC)c1F` [Example 19, N-(2,4-difluoro-3-(8-methoxy-3H-pyrazolo[3,4-c]isoquinolin-7-yl)phenyl)propane-1-sulfonamide], in that order: 60 nM and 77 nM.
For `CCCS(=O)(=O)Nc1ccc(F)c(-c2cc3cnc4[nH]ncc4c3cc2OC)c1Cl` [Example 20, N-(2-chloro-4-fluoro-3-(8-methoxy-3H-pyrazolo[3,4-c]isoquinolin-7-yl)phenyl)propane-1-sulfonamide], in that order: 10 nM and 47 nM.
For `COc1cc2c(cnc3[nH]ncc32)cc1-c1c(F)ccc(NS(=O)(=O)CCCF)c1F` [Example 21, N-(2,4-difluoro-3-(8-methoxy-3H-pyrazolo[3,4-c]isoquinolin-7-yl)phenyl)-3-fluoropropane-1-sulfonamide], the IC50 was found to be 70 nM against BRAF^V600E and 94 nM with A375 cells.
Taken in the same sequence, the figures for `COc1cc2c(cnc3[nH]ncc32)cc1-c1c(F)ccc(NS(=O)(=O)CCCF)c1Cl` [Example 22, N-(2-chloro-4-fluoro-3-(8-methoxy-3H-pyrazolo[3,4-c]isoquinolin-7-yl)phenyl)-3-fluoropropane-1-sulfonamide] were 12 nM and 66 nM.
As for `CCCS(=O)(=O)Nc1ccc(F)c(-c2cc3cnc4[nH]nc(C5CC5)c4c3cc2OC)c1F` [Example 23, N-(3-(1-cyclopropyl-8-methoxy-3H-pyrazolo[3,4-c]isoquinolin-7-yl)-2,4-difluorophenyl)propane-1-sulfonamide], the IC50 in the experiment with A375 cells came to 100 nM.
The same measure, in the same setting: to `CCCS(=O)(=O)Nc1ccc(F)c(-c2cc3cnc4[nH]nc(C5CC5)c4c3cc2OC)c1Cl` [Example 24, N-(2-chloro-3-(1-cyclopropyl-8-methoxy-3H-pyrazolo[3,4-c]isoquinolin-7-yl)-4-fluorophenyl)propane-1-sulfonamide] belongs 284 nM; to `COc1cc2c(cnc3[nH]nc(C4CC4)c32)cc1-c1c(F)ccc(NS(=O)(=O)CCCF)c1Cl` [Example 25, N-(2-chloro-3-(1-cyclopropyl-8-methoxy-3H-pyrazolo[3,4-c]isoquinolin-7-yl)-4-fluorophenyl)-3-fluoropropane-1-sulfonamide], 25 nM.
Take `COc1cc2c(cnc3[nH]nc(C4CC4)c32)cc1-c1c(F)ccc(NS(=O)(=O)CCCF)c1F` [Example 26, N-(3-(1-cyclopropyl-8-methoxy-3H-pyrazolo[3,4-c]isoquinolin-7-yl)-2,4-difluorophenyl)-3-fluoropropane-1-sulfonamide]: the IC50 against BRAF^V600E is 48.8 nM; with A375 cells it was 29.7 nM.
For `CCCS(=O)(=O)Nc1ccc(F)c(-c2ccc3c(cnc4[nH]ccc43)c2)c1F` [Example 27, N-(2,4-difluoro-3-(3H-pyrrolo[2,3-c]isoquinolin-7-yl)phenyl)propane-1-sulfonamide], in that order: 690 nM and 1000 nM.
Consider `CCCS(=O)(=O)Nc1ccc(F)c(-c2ccc3c(cnc4[nH]cnc43)c2)c1F` [Example 28, N-(2,4-difluoro-3-(3H-imidazo[4,5-c]isoquinolin-7-yl)phenyl)propane-1-sulfonamide], for which the results for the IC50 at BRAF^V600E and in the experiment with A375 cells were 389 nM and 309 nM, respectively.

The record behind these values is patent US20160257676A1, “Aminoisoquinoline Derivatives as Protein Kinase Inhibitors” (ETERNITY BIOSCIENCE INC., priority 2012, published 2016).
